From US20160303113A1 (LAGUNA PHARMACEUTICALS ,INC., priority 2013, published 2016)

Columns and labels:
[1] = Example 2: daily doses of vanoxerine for 11 consecutive days, PK and hemodynamics; assay type: in vivo, human
[2] = Example 3: daily vanoxerine for 14 days in healthy patients; assay type: in vivo, human
Protocol: A standardized meal was served 15 minutes prior to each dosing.

[3] = Example 4: daily vanoxerine for 7 days; assay type: in vivo, human
[4] = system: atrial fibrillation/atrial flutter; experiment: Example 6: placebo-controlled study of conversion of recent onset symptomatic AF/AFL to sinus rhythm; assay type: in vivo, human
Protocol: The vanoxerine or identical appearing placebo was randomly assigned and administered in a double-blinded fashion.
Definition of “pure” atrial flutter: only Atrial Flutter (no AF) seen at −30, −15, and 0 time points. Conversion at any time within 24 hours.

[5] = Pharmacokinetic parameters from tests in dogs; assay type: in vivo, dog
From the text: Vanoxerine is primarily eliminated from the body in urine, bile, and feces. Indeed, a substantial amount of the drug is expelled, unabsorbed into the feces. […] However, the long half-life of the drug may actually be utilized to minimize the continuous or regular dosing of the drug.

[6] = healthy subjects; cited from earlier work

Which steady state reached ([1]; 50, 75 and 100 mg daily doses) does the source give for `Fc1ccc(C(OCCN2CCN(CCCc3ccccc3)CC2)c2ccc(F)cc2)cc1` [Vanoxerine, 1-[2-[bis(4-fluorophenyl)methoxy]ethyl]-4-(3-phenylpropyl)piperazine] here?
Its steady state reached is at most 8 days.

What about the “plasma levels at 24 hours” value ([1]; 50, 75 and 100 mg doses) of the same compound?
The value was “detectable”.

And the adverse events ([2]; 25, 75, 125 mg daily for 14 days, healthy patients, after standardized meal)?
The adverse events was “No significant adverse events”.

And the “all patients achieved steady state after” value ([2]; repetitive dosing, all patients)?
Its value is 7 to 10 days.

And the “systolic blood pressure and heart rate” value ([3]; 100 mg daily for 7 days)?
Its value is “increases”.

What about the “systolic blood pressure and heart rate” value ([3]; 150 mg daily for 7 days) of the same compound?
The value was “increases”.

And the Steady-state levels achieved ([3]; 50, 100, 150 mg daily for 7 days, all patients)?
Its Steady-state levels achieved is “within one week”.

And the “Adverse events: number of AEs reported” value ([4]; 200 mg (22))?
The value was “reporting 8 AEs”.

What about the “Adverse events: number of SAEs” value ([4]; 200 mg (22)) of the same compound?
Its value is “(1 SAE)”.

And the “Adverse events: subjects reporting AEs, N (%)” value (“Adverse events … (%)” below) ([4]; 200 mg (22))?
Its value is 4 (18%) subjects.

And the “Adverse events: number of AEs reported” value ([4]; 300 mg (25))?
Its value is “reporting 12 AEs”.

And the “Adverse events … (%)” value ([4]; 300 mg (25))?
The value was 7 (28%) subjects.

What about the “Adverse events: number of AEs reported” value ([4]; 400 mg (25)) of the same compound?
Its value is “reporting 23 AEs”.

And the “Adverse events: number of SAEs” value ([4]; 400 mg (25))?
Its value is “AEs (1 SAE)”.

What about the “Adverse events … (%)” value ([4]; 400 mg (25)) of the same compound?
The value was 10 (40%) subjects.

What about the tolerability ([4]; all doses (200, 300, 400 mg)) of the same compound?
Its tolerability is “well tolerated at all doses”.

And the “conversion to sinus rhythm of recent onset symptomatic AF/AFL, dose dependence” value ([4]; doses of 200, 300 and 400 mg)?
Its value is “highly statistically significant dose dependent increase”.

And the “relation of the two serious adverse events to study drug” value ([4]; one at 200 mg (upper respiratory infection), one at 400 mg (lower extremity edema secondary to amlodipine))?
The value was “neither related to the study drug”.

What about the “elimination from the plasma T112” value [5] of the same compound?
Its value is 22 h.

What about the “effects at higher doses (concentration difficulties, increase systolic blood pressure, asthenia, feeling of drug influence)” value [6] of the same compound?
The value was “some effects were seen”.
